The values that follow come from patent publication US20140018340A1, “Insulin Mimetic Active Comprising Oxodiperoxo Vanadates and a Pharmaceutical Composition Obtained Thereof” (priority 2011, published 2014).

Experiment [1] has as its system Glut4 in 3T3-L1 adipocytes. Kind of experiment: In vitro assay of Glut 4 translocation (GFP-Glut4 transfected cells). Type of experiment: cell-based. Particulars: GFP-Glut4 transfected 3T3-L1 adipocytes.
For experiment [2] the following is noted: dose inducing insulin like activity, from cited reference; cited from earlier work.

On to “insulin: the hormone which regulates the body's glucose level and metabolism”, for which the “Glut4 translocation from cytosol to membrane” value in experiment [1] is “gets translocated to the membrane on addition of insulin”.

Take pervanadate: the Dose in-vitro in experiment [2] is reported as 1 mM.
